Results from PubChem BioAssay (NCI).
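Interpolation was linear, between the two tested concentrations surrounding the appropriate level; five concentrations were tested over 48 hours in 96-well plates. TGI: concentration producing complete growth inhibition.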

Assays:
Experiment in all cases: NCI tumour cell line growth inhibition, 48 h
RXF-631 renal = tested on: RXF-631 renal
HOP-18 NSCLC = tested on: HOP-18 NSCLC
P388 leukemia = tested on: P388 leukemia
P388/ADR leukemia = tested on: P388/ADR leukemia
SN12K1 renal = tested on: SN12K1 renal

Row | Structure (SMILES) | TGI (RXF-631 renal) [µM] | TGI (HOP-18 NSCLC) [µM] | TGI (P388 leukemia) [µM] | TGI (P388/ADR leukemia) [µM] | TGI (SN12K1 renal) [µM]
1 | O=C(N/C(=C\c1ccccc1[N+](=O)[O-])c1nc2ccccc2[nH]1)c1ccccc1 | > 100 |  |  |  | 
2 | Nc1ccc2c(c1)C1=NNC(=O)CC1C2 (stereo not given) |  | > 100 | > 100 | > 100 | > 100
